US10420758B2, “Indolinyl-sulfonamide inhibitors of tankyrase and methods of use thereof” (The Board of Regents of the University of Texas System, priority 2015, dated 2019)

Experiments:
[1] = system: panel of recombinant PARP proteins; experiment: Overall specificity in panel of recombinant PARP proteins; type: biochemical; settings: 10 μM, panel covers 70% of the protein family
Procedure: (§1) Performed by BPS Bioscience Inc., San Diego by following the BPS PARP or TNKS assay kit protocols. The enzymatic reactions were conducted in duplicate at room temperature for 1 hr in a 96 well plate coated with histone substrate. […] of reaction buffer (Tris.HCl, pH 8.0) contains NAD^+, biotinylated NAD^+, activated DNA, recombinant PARP enzyme and 10 μM of the test compound. […] After enzymatic reactions, 50 μL of Streptavidin-horseradish peroxidase was added to each well and the plate was incubated at room temperature for an additional 30 min. 100 μL of developer reagents were added to wells and luminescence was measured using a BioTek Synergy™ 2 microplate reader.
The higher level of conservation between the NI-binding pocket in PARPs as compared to the AD-binding pocket likely imposes greater challenges to achieving specificity with NI-binding pocket inhibitors (Wahlberg, et al., 2012). […] At the same time, the discovery of structurally distinct chemicals both capable of binding the AD-binding pocket in a similar fashion (IWR-1 and IWR-8) afforded an opportunity to evaluate the strength of this hypothesis.

Tnks enzymes = settings: cited from earlier work
[2] = system: Tnks 1 and 2, Axin, β-catenin in SW480 cells; experiment: Western blot of Tnks, Axin and β-catenin levels in SW480 cells; type: cell-based; settings: SW480 cells (truncated Apc), FIG. 1A
Procedure: (FIG. 1A) Biochemical markers of Tnks inhibition associated with the Wnt/β-catenin pathway. […] (FIG. 1B) A biochemical screen to identify additional Tnks inhibitors from the IWR collection of Wnt pathway inhibitors. The effects of the IWR compounds on Tnks 1 and 2, β-catenin, and acetylated tubulin (Ac-Tub; loading control) expression levels were determined in SW480 cells by Western blot analysis.
For Western blot analysis cell lysates were generated with either PBS-NP40 buffer [phosphate-buffered saline (PBS)/1% NP40], or Tris-Triton X-100 buffer [50 mM Tris (pH 8), 200 mM NaCl, 1 mM EDTA, 1% Triton X-100, 10% glycerol, 1 mM DTT, 0.5 mM deoxycholate]. Both buffers were supplemented with protease inhibitor cocktail (Sigma). […] The lysates were cleared by centrifugation at 15,000 rpm for 10 min.

PARP1 = PARP1 (Homo sapiens, UniProt P09874); experiment: PARP profiling, parsylation of immobilized histone; type: biochemical; settings: IWR compounds 10 μM
PARP1, sequence (P09874 whole entry): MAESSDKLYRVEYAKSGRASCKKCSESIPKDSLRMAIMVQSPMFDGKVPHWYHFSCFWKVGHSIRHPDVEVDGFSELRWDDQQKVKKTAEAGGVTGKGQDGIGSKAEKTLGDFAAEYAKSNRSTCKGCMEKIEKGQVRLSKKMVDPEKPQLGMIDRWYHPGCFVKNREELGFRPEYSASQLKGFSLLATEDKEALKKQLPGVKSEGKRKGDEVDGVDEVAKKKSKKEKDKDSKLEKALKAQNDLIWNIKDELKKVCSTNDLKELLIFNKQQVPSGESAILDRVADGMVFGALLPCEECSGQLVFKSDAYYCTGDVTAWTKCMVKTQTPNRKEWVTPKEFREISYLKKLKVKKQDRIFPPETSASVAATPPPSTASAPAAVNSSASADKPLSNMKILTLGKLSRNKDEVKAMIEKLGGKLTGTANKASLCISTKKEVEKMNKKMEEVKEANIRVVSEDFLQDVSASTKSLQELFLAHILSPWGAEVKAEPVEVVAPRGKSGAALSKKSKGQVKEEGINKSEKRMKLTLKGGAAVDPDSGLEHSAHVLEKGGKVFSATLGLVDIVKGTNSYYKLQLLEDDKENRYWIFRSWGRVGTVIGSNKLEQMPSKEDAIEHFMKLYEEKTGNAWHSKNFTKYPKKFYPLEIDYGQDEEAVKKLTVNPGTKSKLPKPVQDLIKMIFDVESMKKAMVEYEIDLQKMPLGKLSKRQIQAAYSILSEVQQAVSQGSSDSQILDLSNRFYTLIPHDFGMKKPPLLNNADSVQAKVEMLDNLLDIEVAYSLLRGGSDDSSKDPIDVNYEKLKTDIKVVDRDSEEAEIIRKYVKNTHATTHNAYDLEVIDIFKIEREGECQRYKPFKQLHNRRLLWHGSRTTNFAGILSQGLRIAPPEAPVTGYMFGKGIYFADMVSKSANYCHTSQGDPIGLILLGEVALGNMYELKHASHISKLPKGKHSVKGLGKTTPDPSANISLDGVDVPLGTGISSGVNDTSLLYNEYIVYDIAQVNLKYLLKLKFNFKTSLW
Procedure: as §1

PARP6 = PARP6 (Homo sapiens, UniProt Q2NL67); experiment: PARP profiling, parsylation of immobilized histone; type: biochemical; settings: IWR compounds 10 μM
PARP6, sequence (Q2NL67 whole entry): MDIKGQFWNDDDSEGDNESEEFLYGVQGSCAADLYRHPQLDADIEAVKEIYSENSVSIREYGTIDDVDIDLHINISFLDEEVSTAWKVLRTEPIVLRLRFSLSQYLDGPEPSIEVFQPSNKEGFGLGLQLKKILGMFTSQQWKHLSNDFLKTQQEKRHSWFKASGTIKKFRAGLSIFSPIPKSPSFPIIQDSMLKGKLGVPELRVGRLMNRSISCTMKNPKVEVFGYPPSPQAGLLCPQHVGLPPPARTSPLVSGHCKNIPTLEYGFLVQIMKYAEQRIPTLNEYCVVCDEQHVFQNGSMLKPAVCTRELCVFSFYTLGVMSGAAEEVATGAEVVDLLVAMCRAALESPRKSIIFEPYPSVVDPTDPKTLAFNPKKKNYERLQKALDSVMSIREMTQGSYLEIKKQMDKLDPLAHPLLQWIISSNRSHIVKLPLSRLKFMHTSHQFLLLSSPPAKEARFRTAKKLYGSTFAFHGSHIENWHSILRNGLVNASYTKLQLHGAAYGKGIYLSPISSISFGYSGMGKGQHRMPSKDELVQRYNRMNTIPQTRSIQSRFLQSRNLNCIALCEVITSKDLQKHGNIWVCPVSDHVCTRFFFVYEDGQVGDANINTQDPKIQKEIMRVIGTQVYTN
Procedure: as §1

PARP7 = PARP7 (Homo sapiens, UniProt Q7Z3E1); experiment: PARP profiling, parsylation of immobilized histone; type: biochemical; settings: IWR compounds 10 μM
PARP7, sequence (Q7Z3E1 whole entry): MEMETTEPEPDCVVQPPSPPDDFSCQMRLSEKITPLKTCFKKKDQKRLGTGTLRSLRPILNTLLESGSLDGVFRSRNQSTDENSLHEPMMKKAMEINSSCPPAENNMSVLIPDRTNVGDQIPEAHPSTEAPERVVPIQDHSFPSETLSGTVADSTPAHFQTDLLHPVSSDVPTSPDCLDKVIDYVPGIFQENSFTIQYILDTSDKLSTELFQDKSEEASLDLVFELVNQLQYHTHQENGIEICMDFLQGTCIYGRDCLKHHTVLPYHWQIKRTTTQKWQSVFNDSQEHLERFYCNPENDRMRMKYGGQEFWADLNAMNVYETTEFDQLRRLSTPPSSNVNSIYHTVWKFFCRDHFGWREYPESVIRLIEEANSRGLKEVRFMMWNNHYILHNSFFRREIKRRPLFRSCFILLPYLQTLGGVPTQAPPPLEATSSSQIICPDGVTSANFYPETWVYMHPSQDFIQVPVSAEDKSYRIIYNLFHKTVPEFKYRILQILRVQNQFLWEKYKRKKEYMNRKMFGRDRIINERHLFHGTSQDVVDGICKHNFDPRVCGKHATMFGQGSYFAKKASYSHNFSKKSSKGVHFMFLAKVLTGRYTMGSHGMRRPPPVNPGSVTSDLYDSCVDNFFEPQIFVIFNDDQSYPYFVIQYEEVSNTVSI
Procedure: as §1

telomerase = target: T1, telomerase (Homo sapiens, UniProt O14746); experiment: Digital droplet telomerase extension (ddTRAP) assay; type: cell-based; settings: HeLa cells treated for 24 hrs, FIG. 4F
T1 construct: endogenous in cells; host or cells: HeLa
Description: FIGS. 4A-4F show Tnks inhibitors induce telomeric stress in human cells independently of Wnt/β-catenin pathway inhibition. (FIG. 4A) Porcn inhibitors afford a Tnks-independent approach to disrupting Wnt/β-catenin signaling. Chemicals targeting the Wnt acyltransferase Porcn abrogate Wnt palmitoylation which in turn results in loss of activity of the Frizzled (Fzd) family of Wnt receptors. Fzd receptors directly induce activation of the cytoplasmic signaling molecule Dishevelled (Dvl) in a ligand-dependent manner, which in turn results in activation of β-catenin and transcription mediated by the TCF family of DNA binding proteins. […] The appearance of co-localized Terf2 and pH2A.X (an indicator of DNA damage at the telomere ends; Telomere Induced Foci or TIFs) was scored using indirect immunofluorescence in Hela cells (expressing wild-type Apc protein). (FIG. 4C) Quantification of results represented in “B”. Cells with >5 TIFs were scored as positive for telomeric damage (left bars). […]
The ddTRAP assay was performed as previously described (Ludlow, et al., 2014). […] Fluorescence was quantitated using a QX200 droplet reader (Bio-Rad) in the 6-Fam channel. Thresholds for quantitation were determined by comparison to a telomerase negative fibroblast cell line and no cell input negative control samples and untreated Hela cell positive control samples.

[3] = target: T2, purified Tnks1 SAM-PARP protein (Homo sapiens, UniProt O95271); experiment: In vitro Tnks activity assay, histone parsylation (HT Universal Color PARP Assay Kit); type: biochemical; settings: parsylation of immobilized histone, colorimetric, FIG. 2A
T2 construct: purified Tnks1 SAM-PARP protein; provided by Herwig Schüler (gift, not a vendor)
T2 sequence (O95271 1030-1317 limits assumed): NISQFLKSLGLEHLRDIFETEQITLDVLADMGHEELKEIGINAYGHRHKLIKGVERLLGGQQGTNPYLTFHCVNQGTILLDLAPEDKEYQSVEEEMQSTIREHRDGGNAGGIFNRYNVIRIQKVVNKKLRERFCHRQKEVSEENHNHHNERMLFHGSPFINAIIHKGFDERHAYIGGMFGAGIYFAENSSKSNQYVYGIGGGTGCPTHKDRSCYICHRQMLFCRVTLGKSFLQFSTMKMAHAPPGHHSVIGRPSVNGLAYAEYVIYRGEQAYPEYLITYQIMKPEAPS
Procedure: Parsylation of immobilized histone protein was determined by colorimetric detection of incorporated biotinylated NAD+ in 96 well format.

TNKS1 = TNKS1 (Homo sapiens, UniProt O95271); experiment: PARP profiling, parsylation of immobilized histone; type: biochemical; settings: IWR compounds 10 μM
TNKS1, sequence (O95271 whole entry): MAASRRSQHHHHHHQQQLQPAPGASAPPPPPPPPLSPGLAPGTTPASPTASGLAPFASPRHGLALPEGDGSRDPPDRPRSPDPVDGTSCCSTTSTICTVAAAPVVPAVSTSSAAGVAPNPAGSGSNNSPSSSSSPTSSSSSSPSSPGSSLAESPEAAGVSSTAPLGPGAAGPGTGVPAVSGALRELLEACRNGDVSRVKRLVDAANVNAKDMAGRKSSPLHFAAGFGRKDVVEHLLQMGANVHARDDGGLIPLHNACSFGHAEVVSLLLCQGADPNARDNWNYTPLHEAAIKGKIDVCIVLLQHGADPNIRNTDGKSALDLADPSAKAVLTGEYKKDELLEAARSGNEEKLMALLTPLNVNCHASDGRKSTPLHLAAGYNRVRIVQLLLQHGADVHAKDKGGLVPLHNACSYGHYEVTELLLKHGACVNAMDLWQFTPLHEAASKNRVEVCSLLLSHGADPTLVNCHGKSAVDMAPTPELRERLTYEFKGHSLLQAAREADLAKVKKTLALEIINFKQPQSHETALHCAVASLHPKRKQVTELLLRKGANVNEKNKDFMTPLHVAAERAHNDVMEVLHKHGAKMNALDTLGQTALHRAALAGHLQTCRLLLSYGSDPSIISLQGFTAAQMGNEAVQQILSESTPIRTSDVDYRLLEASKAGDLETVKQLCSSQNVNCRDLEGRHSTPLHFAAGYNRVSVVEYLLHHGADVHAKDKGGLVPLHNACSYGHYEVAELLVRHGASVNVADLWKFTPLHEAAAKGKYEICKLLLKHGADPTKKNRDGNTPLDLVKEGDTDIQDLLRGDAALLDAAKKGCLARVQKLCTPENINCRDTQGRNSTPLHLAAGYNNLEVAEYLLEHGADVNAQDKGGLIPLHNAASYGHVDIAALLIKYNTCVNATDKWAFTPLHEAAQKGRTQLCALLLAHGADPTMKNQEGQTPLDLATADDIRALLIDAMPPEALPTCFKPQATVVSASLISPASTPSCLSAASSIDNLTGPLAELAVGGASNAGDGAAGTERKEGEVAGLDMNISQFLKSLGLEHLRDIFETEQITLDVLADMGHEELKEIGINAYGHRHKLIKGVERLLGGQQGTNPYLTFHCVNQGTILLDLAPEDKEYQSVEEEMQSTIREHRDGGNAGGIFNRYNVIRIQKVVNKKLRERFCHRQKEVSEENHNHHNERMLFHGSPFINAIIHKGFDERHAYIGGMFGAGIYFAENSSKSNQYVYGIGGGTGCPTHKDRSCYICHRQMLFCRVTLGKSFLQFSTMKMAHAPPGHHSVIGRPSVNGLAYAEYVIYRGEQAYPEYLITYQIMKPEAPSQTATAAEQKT
Procedure: as §1

TNKS2 = TNKS2 (Homo sapiens, UniProt Q9H2K2); experiment: PARP profiling, parsylation of immobilized histone; type: biochemical; settings: IWR compounds 10 μM
TNKS2, sequence (Q9H2K2 whole entry): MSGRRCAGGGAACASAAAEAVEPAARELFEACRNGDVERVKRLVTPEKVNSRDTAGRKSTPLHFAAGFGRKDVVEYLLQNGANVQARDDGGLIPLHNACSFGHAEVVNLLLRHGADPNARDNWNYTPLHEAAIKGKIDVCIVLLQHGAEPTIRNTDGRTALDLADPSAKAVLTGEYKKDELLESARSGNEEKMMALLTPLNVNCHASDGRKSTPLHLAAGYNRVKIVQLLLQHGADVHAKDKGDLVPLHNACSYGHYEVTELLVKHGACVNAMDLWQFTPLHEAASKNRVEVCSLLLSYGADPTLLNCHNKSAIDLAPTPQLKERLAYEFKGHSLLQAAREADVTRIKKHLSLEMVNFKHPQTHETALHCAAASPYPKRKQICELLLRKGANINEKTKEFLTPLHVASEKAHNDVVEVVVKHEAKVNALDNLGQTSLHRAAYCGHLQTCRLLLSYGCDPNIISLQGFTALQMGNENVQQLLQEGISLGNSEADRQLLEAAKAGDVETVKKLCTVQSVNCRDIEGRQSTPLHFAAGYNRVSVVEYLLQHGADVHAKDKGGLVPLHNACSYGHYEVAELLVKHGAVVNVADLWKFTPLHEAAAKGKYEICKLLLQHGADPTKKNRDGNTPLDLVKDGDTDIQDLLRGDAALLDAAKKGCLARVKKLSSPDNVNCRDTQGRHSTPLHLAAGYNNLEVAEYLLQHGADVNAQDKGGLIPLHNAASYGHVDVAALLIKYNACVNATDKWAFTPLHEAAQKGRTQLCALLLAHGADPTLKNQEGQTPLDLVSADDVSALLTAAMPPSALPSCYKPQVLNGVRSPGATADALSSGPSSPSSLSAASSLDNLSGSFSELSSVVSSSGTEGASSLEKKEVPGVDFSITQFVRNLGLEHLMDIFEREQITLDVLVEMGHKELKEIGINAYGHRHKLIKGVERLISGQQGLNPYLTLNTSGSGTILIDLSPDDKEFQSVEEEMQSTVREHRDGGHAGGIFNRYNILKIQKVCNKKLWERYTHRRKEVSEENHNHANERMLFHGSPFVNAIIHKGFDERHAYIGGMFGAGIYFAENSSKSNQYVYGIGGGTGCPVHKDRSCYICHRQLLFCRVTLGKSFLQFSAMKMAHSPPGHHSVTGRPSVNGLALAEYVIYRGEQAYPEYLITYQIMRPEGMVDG
Procedure: as §1

| SMILES | specificity/selectivity across PARP panel [1] | specificity for Tnks enzymes over several other PARPs compared to XAV-939 (Tnks enzymes) | Tnks and Axin protein levels [2] | β-catenin protein level [2] | % inhibition (PARP1) | % inhibition (PARP6) | % inhibition (PARP7) | telomerase activity (telomerase) | ability to inhibit purified recombinant Tnks1 protein [3] | inhibition at 10 µM (PARP1) | inhibition at 10 µM (PARP6) | inhibition at 10 µM (TNKS1) | inhibition at 10 µM (PARP7) | inhibition at 10 µM (TNKS2) |
| --- | --- | --- | --- | --- | --- | --- | --- | --- | --- | --- | --- | --- | --- | --- |
| O=C(Nc1cccc2cccnc12)c1ccc(N2C(=O)[C@@H]3[C@H](C2=O)[C@@H]2C=C[C@H]3C2)cc1 [IWR-1] | highly specific | ~100 fold | induce stabilization of both Tnks enzymes and Axin proteins | promote destruction of β-catenin | 0% | 0% | 7% | direct inactivation of telomerase by Tnks inhibitors was ruled out |  |  |  |  |  |  |
| CCN(C(=O)C1CCN(S(=O)(=O)c2cc3c(cc2Br)CCN3C(C)=O)CC1)c1cccc(C)c1 [IWR-8] | highly specific |  |  |  |  |  |  |  | directly target Tnks | 0% | 0% | 99% | 8% | 99% |
